Source: article PMC8302598, “Rapid discovery of self-assembling peptides with one-bead one-compound peptide library” (Nature Communications, 2021)
Entries after “also recorded” stand apart in the source; their conditions may differ.

Assays:
[1] = TEM morphology and size of peptide nano-assemblies over time; assay type: physicochemical; details: for Initial nanostructure (TEM): DMSO stock 5 mM diluted 100X with water, 50 μM (legend: 40 μM), 1% DMSO, fixed immediately (0 h); for Nanoparticle size by TEM, 0 h / Nanoparticle size by TEM, 4 h: H2O with 1% DMSO, 40 μM / 50 μM
Text: Self-assembling peptides with good biocompatibility may be used to construct nanocarriers for drug delivery. We recently reported the use of FFVLK, the reverse sequence of KLVFF, as a self-aggregating β-sheet forming domain for the delivery of HER2 targeting peptides for successful treatment of breast cancer in xenograft models. Such FFVLK containing peptide is able to self-assemble into nanoparticles. Upon intravenous administration, the FFVLK-nanoparticle was able to transform into nanofibrillar network when encountering HER2 at the tumor sites. To investigate the morphology of the nano-assembly formed by the eight self-assembling peptides, we dissolved each of these peptides in DMSO (5 mM) and then diluted them 100X with water at a final peptide concentration of 50 μM to induce spontaneous self-assembly. Each sample was fixed immediately after peptide solution preparation and at 4 h time point for subsequent TEM processing and analysis. As clearly shown in Fig. 4a, all eight self-assembling peptides initially formed some nanostructures: nanoparticles for ITSVV, YFTEF, ISDNL, LDFPI, FAGFT, FGFDP, and FTISD; nanofibers for FFVDF. […] LDFPI (8 nm) maintained the particulate morphology without changing of diameter in 4 h. FFVDF formed nanofibers at 0 and 4 h. […] Time-dependent size variations of pentapeptides in water were further confirmed by DLS spectra (Supplementary Fig. 18). The initial diameters of nanoparticles formed by seven pentapeptides were larger than that observed by TEM, probably due to hydration radius. The size of the nanostructure increased over time, correlating well with the morphologic transformation. […] Circular dichroism (CD) was used to monitor the secondary structures of the nano-assembly of the eight self-assembling peptides over time (Supplementary Fig. 20).
Pentapeptides monomers were dissolved in DMSO at a concentration of 5.0 mM, followed by quick injection into water at a volume ratio of 1:99 for DMSO and H2O to obtain the nanomaterials solution (50 μM). For 30 mM pentapeptide solution, the pentapeptide was dissolved in water and sonicated for 3 min.
The pentapeptide solution with the concentration of 20 μM (10 μL) was placed dropwise onto a copper mesh for 5 min, then most of the liquid was removed through a filter paper. Ten microliters of uranyl acetate solution were employed to stain the samples for 5 min, followed by drying the spare liquid with the filter. Finally, the copper mesh was washed with 10 μL of deionized water, which was blotted after staining and drying at room temperature. All of the samples were observed by TEM (Tecnai G2 20 S-TWIN) at an accelerating voltage of 200 kV.

HeLa cells = assay: Cellular uptake and distribution of FITC-labeled peptide assemblies (fluorescence/confocal microscopy); assay type: cell-based; details: 40 μM (methods: 50 μM); for Cellular uptake: HeLa cells, 3% of peptide N-terminally FITC-labeled, 4 h incubation, fluorescence microscope; for Cellular distribution of peptide assemblies: live HeLa cells, 3% FITC-labeled peptide, 4 h, Lyso-Tracker Red, Hoechst
Experimental: Finally, we examined the biological effects and cellular distribution of the eight self-assembling peptides on HeLa cells. […] In order to observe the nanomaterials under fluorescent microscopy, each peptide preparation was spiked with 3% of the same peptide N-terminally labeled with FITC, and then added to HeLa cells at a final concentration of 40 μM. […] After 4 h of incubation with the peptide assemblies, the cells were observed under a fluorescent microscope (Figs. 4c, d and Supplementary 22). […] It is important to note that LDFPI nanoparticle was small (8 nm diameter) even after 4 h incubation. Its small size may in part explain its ability to pass through the nuclear pore complexes[32],[33]. […] To evaluate the cell uptake mechanism of peptide assemblies (YFTEF, ISDNL, and FGFDP) into the cytoplasm, we treated the cells at 4 °C or with various endocytosis inhibitors (Supplementary Fig. 23).
Hela cell line was purchased from cell culture center of Institute of Basic Medical Sciences, Chinese Academy of Medical Sciences (Beijing, China). Hela cells cultured with pentapeptide nanomaterials (50 μM) were imaged using a Zeiss LSM710 confocal laser scanning microscope (Jena, Germany). The Hela cells were seeded in complete DMEM in a humidified atmosphere with 5% CO2 and then cultured at 37 °C overnight. Then, 1 mL of serum-free fresh medium containing pentapeptide (50 μM) was used for replacing the medium, and the cells were cultured for 4 h and washed with PBS three times before being imaged using a Zeiss LSM710 confocal laser scanning microscope with a 40× objective lens. The cell lines had been authenticated utilizing short tandem repeat DNA profiling. All cells were tested negative for cross-contamination of other human cells and mycoplasma contamination.
Supplementary Figure 22. Confocal microscopy of HeLa cells after incubation with FITC-labeled pentapeptide assemblies (from left to right: FT ISD, IT SVV, Y FT E F, ISDNL , L D FP I, FAG FT, FG FDP, FFVD F ) for 4 h; peptide concentration used was 50 μM. 3% of the assembled peptides was N-terminally labeled with FITC.
Supplementary Figure 23 . Cell uptake pathway analysis for FITC-labeled pentapeptide assemblies YFTEF, ISDNL and […]. a) CLSM images of HeLa cells incubated with pentapeptides (50 μ M ) at di fferent temperatures (37 or 4 °C) and in the presence of various endocytosis inhibitors, such as amiloride (2 mM), M-β-CD (5 mM), and chlorpromazine (50 μM). The scale bar is 10 μm. b) Relevant quantitative analysis of images from ‘a’. 3% of the assembled peptides was N-terminally labeled with FITC, E rror ba rs represent Standard Deviation (n=3). […]

| Substance | Initial nanostructure (TEM) [1] | Nanoparticle size by TEM, 0 h [1] [nm] | Nanoparticle size by TEM, 4 h [1] | Cellular uptake (HeLa cells) | Cellular distribution of peptide assemblies (HeLa cells) |
| --- | --- | --- | --- | --- | --- |
| YFTEF [self-assembling pentapeptide identified from OBOC library] | nanoparticles | 41 | 75 nm | Obvious cellular uptake | distributed throughout the cytoplasm but not the nucleus |
| ISDNL [self-assembling pentapeptide identified from OBOC library] | nanoparticles | – | – | Obvious cellular uptake | distributed inside the lysosomes throughout the cytoplasm; also recorded: distribute only to the cytoplasm, in granular forms |
| LDFPI [self-assembling pentapeptide identified from OBOC library] | nanoparticles | 8 | 8 nm | Obvious cellular uptake | localized to the nucleus and perinuclear areas |
| FAGFT [self-assembling pentapeptide identified from OBOC library] | nanoparticles | 10 | 15 nm | Obvious cellular uptake | mainly confine to the cytoplasm |
| FFVDF [self-assembling pentapeptide identified from OBOC library, forms nanofibers] | nanofibers | – | – | – | formed aggregates outside the cell; also recorded: formed some fluorescent aggregates outside the cells |
| FTISD [self-assembling pentapeptide identified from OBOC library] | nanoparticles | – | – | – | stained both the cell membrane and cytoplasm |
| FGFDP [self-assembling pentapeptide identified from OBOC library] | nanoparticles | – | – | Obvious cellular uptake | distribute only to the cytoplasm, in granular forms |
| ITSVV [self-assembling pentapeptide identified from OBOC library] | nanoparticles | – | ~ 300 nm | – | localized on the cell membrane; also recorded: staining of the cell membrane and minor staining of the cytoplasm |
